#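 1) Cells in 96-well plates. 2) Compound, 48 h, 5 concentrations. 3) Linear interpolation between surrounding doses. 4) Unreached endpoint = highest concentration. At the GI50, growth is halved.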 Activity calls are given as the source filed them. Cut-off read from the data, not from the text of the source: active = GI50 up to about 1.1 µM and inactive = higher.
# Legend:
# Experiment in all cases: growth of human tumour cells (NCI), 48 h
# [1] = test system: COLO 205
# [2] = test system: DU-145
# [3] = test system: HCC 2998
# [4] = test system: HOP-92
# [5] = test system: Hs-578T
# [6] = test system: K562
# [7] = test system: KM12
# [8] = test system: MDA-MB-435
# [9] = test system: MOLT-4
# [10] = test system: NCI-H23
# [11] = test system: NCI-H460
# [12] = test system: OVCAR-5
# [13] = test system: RXF 393
# [14] = test system: SF-295
# [15] = test system: SF-539
# [16] = test system: SNB-19
# [17] = test system: SR
# [18] = test system: SW-620
# [19] = test system: T47D
# [20] = test system: U-251
Compound,GI50 [1],GI50 [2],GI50 [3],GI50 [4],GI50 [5],GI50 [6],GI50 [7],GI50 [8],GI50 [9],GI50 [10],GI50 [11],GI50 [12],GI50 [13],GI50 [14],GI50 [15],GI50 [16],GI50 [17],GI50 [18],GI50 [19],GI50 [20]
NC(=O)SCCC(N)C(=O)O (stereo not given),> 100 µM (inactive),> 100 µM (inactive),> 100 µM (inactive),> 100 µM (inactive),> 100 µM (inactive),> 100 µM (inactive),> 100 µM (inactive),> 100 µM (inactive),> 100 µM (inactive),> 100 µM (inactive),> 100 µM (inactive),> 100 µM (inactive),> 100 µM (inactive),> 100 µM (inactive),> 100 µM (inactive),> 100 µM (inactive),> 100 µM (inactive),> 100 µM (inactive),> 100 µM (inactive),> 100 µM (inactive)
COC(=O)C1=C(O)C(C(=O)OC)[C@]2(O)[C@H](C(=O)OC)[C@H]1C[C@@H](c1ccc(F)cc1)[C@H]2C(=O)OC (stereo not given in full),14.7 µM (inactive),14.8 µM (inactive),14.6 µM (inactive),27.3 µM (inactive),21.7 µM (inactive),9.23 µM (inactive),18.1 µM (inactive),5.43 µM (inactive),15.2 µM (inactive),14 µM (inactive),17.4 µM (inactive),17.7 µM (inactive),11.2 µM (inactive),14.2 µM (inactive),18.2 µM (inactive),19.1 µM (inactive),10.9 µM (inactive),13.2 µM (inactive),22.6 µM (inactive),15.4 µM (inactive)
COC(=O)c1nc2n(n1)-c1ccccc1C(=O)N(Cc1ccccc1)C2,> 100 µM (inactive),> 100 µM (inactive),40.4 µM (inactive),> 100 µM (inactive),> 100 µM (inactive),> 100 µM (inactive),> 100 µM (inactive),> 100 µM (inactive),> 100 µM (inactive),> 100 µM (inactive),> 100 µM (inactive),> 100 µM (inactive),> 100 µM (inactive),> 100 µM (inactive),> 100 µM (inactive),> 100 µM (inactive),> 100 µM (inactive),> 100 µM (inactive),> 100 µM (inactive),> 100 µM (inactive)
COC(=O)NC1C(C)OC(OC2C/C=C(/C)C3C=CC4C(OC5CC(OC6CC(O)C(OC7CC(O)C(OC)C(C)O7)C(C)O6)C(O)C(C)O5)C(C)CC(C)C4C3(C)C(=O)C3=C(O)C4(CC(C)C(CO)=CC4/C=C\2C)OC3=O)CC1(C)[N+](=O)[O-] (stereo not given),5.16 µM (inactive),11.6 µM (inactive),16.6 µM (inactive),5.45 µM (inactive),10.9 µM (inactive),4.41 µM (inactive),14.5 µM (inactive),8.75 µM (inactive),3.72 µM (inactive),11.9 µM (inactive),12.3 µM (inactive),17.9 µM (inactive),12.3 µM (inactive),16.6 µM (inactive),16.9 µM (inactive),19.1 µM (inactive),14.8 µM (inactive),9.86 µM (inactive),11.5 µM (inactive),10.9 µM (inactive)
COc1cccc2c1C(=O)c1c(O)c3c(c(O)c1C2=O)CC(O)(C(=O)CO)CC3OC1CC(N2CCOCC2C#N)C(O)C(C)O1 (stereo not given),< 0.0001 µM (active),< 0.0001 µM (active),< 0.0001 µM (active),< 0.0001 µM (active),> 0.01 µM (active),< 0.0001 µM (active),< 0.0001 µM (active),< 0.0001 µM (active),< 0.0001 µM (active),< 0.0001 µM (active),< 0.0001 µM (active),< 0.0001 µM (active),> 0.01 µM (active),< 0.0001 µM (active),< 0.0001 µM (active),< 0.0001 µM (active),< 0.0001 µM (active),< 0.0001 µM (active),< 0.0001 µM (active),< 0.0001 µM (active)

# — ChEMBL document CHEMBL1201862, “PubChem BioAssay data set” (2004)
